From PMC12236194, “Precision dendritic-supramolecular glycan assemblies for probing multivalent lectin interactions” (Chemical Science, 2025)

Legend:
[1] = Dynamic light scattering (DLS) hydrodynamic diameter in solution; assay type: physicochemical; conditions: H2O, 1 mM, 25 °C
Protocol: S3. Dynamic Light Scattering (DLS)
All measurements were conducted using a 384-well plate with individual sample volumes of 30
µL. Solutions of man-2, man-3, and man-6 were freshly prepared in H2O (1 mM). For the glycoassembly analyses, two solution conditions were used: samples prepared in H2O (5 μM), and samples prepared in mixed DMSO/H2O solutions (85% v/v, 50 μM). The concentration of each glycoassembly solution was determined by absorption spectroscopy according to ε values (M-1cm-1) reported in Section S2.2. All sample solutions were filtered through a 0.22 μm PTFE syringe filter before being added to a well. The sample plate was then centrifuged using a Fisherbrand Mini Plate Spinner Centrifuge at 2500 rpm for 20 sec, and measurements were immediately collected at 25 °C. Before data collection, images were taken of each well to confirm the absence of bubbles or visible dust particles that affect the DLS measurements. The hydrodynamic diameter (Dh) values represent the mean ± standard deviation (σ) of the hydrodynamic size averaged for three (1 sec) scans and all data were analyzed using DYNAMICS […]
S3.1.1. Measurement in H2O (1 mM)
Figure S53. DLS measurements of man -2 (H O, 1 mM).
S3.2.1. Measurement in H2O (1 mM)
Figure S54. DLS measurements of man-3 (H2O, 1 mM). […]

[2] = target: monomeric Griffithsin (GRFT); parameters: method as in PMID 17340634; conditions: monovalent sugar; cited from earlier work

Hydrodynamic diameter (Dh) [1] [nm]	SMILES	Kd [2] [µM]
1.6 ± 0.6	O=Cc1ccc(OCc2cc(OCc3cn(CCOCCO[C@H]4O[C@H](CO)[C@@H](O)[C@H](O)[C@@H]4O)nn3)cc(OCc3cn(CCOCCO[C@H]4O[C@H](CO)[C@@H](O)[C@H](O)[C@@H]4O)nn3)c2)cn1 [man-2]	–
1.8 ± 0.1	O=Cc1ccc(OCc2cc(OCc3cn(CCOCCO[C@H]4O[C@H](CO)[C@@H](O)[C@H](O)[C@@H]4O)nn3)c(OCc3cn(CCOCCO[C@H]4O[C@H](CO)[C@@H](O)[C@H](O)[C@@H]4O)nn3)c(OCc3cn(CCOCCO[C@H]4O[C@H](CO)[C@@H](O)[C@H](O)[C@@H]4O)nn3)c2)cn1 [man-3]	–
2.4 ± 0.2	O=Cc1ccc(OCc2cc(OCc3cc(OCc4cn(CCOCCO[C@H]5O[C@H](CO)[C@@H](O)[C@H](O)[C@@H]5O)nn4)c(OCc4cn(CCOCCO[C@H]5O[C@H](CO)[C@@H](O)[C@H](O)[C@@H]5O)nn4)c(OCc4cn(CCOCCO[C@H]5O[C@H](CO)[C@@H](O)[C@H](O)[C@@H]5O)nn4)c3)cc(OCc3cc(OCc4cn(CCOCCO[C@H]5O[C@H](CO)[C@@H](O)[C@H](O)[C@@H]5O)nn4)c(OCc4cn(CCOCCO[C@H]5O[C@H](CO)[C@@H](O)[C@H](O)[C@@H]5O)nn4)c(OCc4cn(CCOCCO[C@H]5O[C@H](CO)[C@@H](O)[C@H](O)[C@@H]5O)nn4)c3)c2)cn1 [man-6]	–
–	OC[C@H]1O[C@H](O)[C@@H](O)[C@@H](O)[C@@H]1O [α-D-mannose]	~100
